Laboratory results from patent US20230273203A1, “METHOD FOR DETERMINING FORMULATION OF COMBINATION CONSISTING OF MULTIPLE CANDIDATE SUBSTRATES OF SMELL, TASTE, OR SOMATIC SENSATION AND REPRODUCING SMELL, TASTE, OR SOMATIC SENSATION OF TARGET SUBSTANCE” (Japan Tobacco Inc., priority 2020, published 2023).

Legend:
[1] = Sensory evaluation of similarity in odor quality to coumarin (VAS); assay type: in vivo, human; conditions: headspace aroma, panel of five trained experts, samples in propylene glycol at Table 2 concentrations; FIG. 4
Description: In this example, similarity in odor quality between coumarin and the coumarin reconstitution fragrance obtained in Example 3 was verified by sensory evaluation. In the sensory evaluation, the verification was performed by a panel of five trained experts. The similarity in odor was obtained by evaluating the similarity between the headspace aromas of coumarin presented as a reference and each evaluation sample presented blindly, using a Visual Analog Scale (VAS).

OR1 = assay: Olfactory receptor response measurement, CRE-luciferase reporter in HEK-Olf cells; assay type: cell-based, human; conditions: ◯ = receptor responds to the fragrance; luminescence after 3 hours
From the text: (§1) An olfactory receptor gene library (pFN21KSPc HaloTag-OR) prepared by inserting 351 human olfactory receptor genes obtained from a human cDNA library into the pFN21KSPc HaloTag vector was purchased from Kazusa Genome Technologies. Of the 351 types, olfactory receptors OR1A1, OR2B11, and the like were polymorphisms known to show low responses to known agonists, such that the olfactory receptors were modified into polymorphisms with high responsiveness for use in the subsequent test (Joel D. Mainland, et al., Nat Neurosci. 2014; 17(1): p. 114-120).
(§2) The cell line HEK-Olf obtained in Example 1 was prepared in DMEM medium (Thermo Fisher) and then seeded in a 96-well plate (Corning) at 1×10^4 cells/well. Subsequently, pFN21KSPc HaloTag-OR and pGL4.29[luc2P/CRE/Hygro] Vector (Promega) were introduced into the HEK-Olf with ViaFect (trademark) Transfection Reagent (Promega). At this time, pFN21KSPc HaloTag-OR and pGL4.29[luc2P/CRE/Hygro] Vector were prepared to give 70 ng/well and 30 ng/well, respectively. Using each olfactory receptor expressing HEK-Olf thus constructed, measurement of responses of the olfactory receptors was performed as follows.
(§3) Each olfactory receptor expressing HEK-Olf obtained above was cultured for 24 hours at 37° C. under 5% CO2; then the medium was removed, and test compounds (candidate substances) prepared appropriately in DMEM medium were added in 50 μL aliquots. DMEM medium containing no test compound was added to negative control wells, and forskolin adjusted to 3 μM was added to positive control wells. After 3 hours of reaction at 37° C. under 5% CO2, responses of the olfactory receptors were obtained by luminescence measurement using ONE-Glo (trademark) Luciferase Assay kit (Promega).
(§4) The response intensity R of an olfactory receptor at each concentration was calculated using the luminescence intensity (RLU) obtained in the measurement, based on formula (6) below: […]
(§5) Furthermore, using the curve fitting software XLFit (IDBS), the maximum response intensity and EC50 of the dose response curve were derived.

OR6 = assay: as above; assay type: cell-based, human; conditions: ◯ = receptor responds to the fragrance; luminescence after 3 hours
From the text: as §1, §2, §3, §4, §5

OR4 = assay: as above; assay type: cell-based, human; conditions: ◯ = receptor responds to the fragrance; luminescence after 3 hours
From the text: as §1, §2, §3, §4, §5

OR2 = assay: as above; assay type: cell-based, human; conditions: ◯ = receptor responds to the fragrance; luminescence after 3 hours
From the text: as §1, §2, §3, §4, §5

OR5 = assay: as above; assay type: cell-based, human; conditions: ◯ = receptor responds to the fragrance; luminescence after 3 hours
From the text: as §1, §2, §3, §4, §5

OR10 = assay: as above; assay type: cell-based, human; conditions: ◯ = receptor responds to the fragrance; luminescence after 3 hours
From the text: as §1
The cell line HEK-Olf obtained in Example 1 was prepared in DMEM medium (Thermo Fisher) and then seeded in a 96-well plate (Corning) at 1×10^4 cells/well. Subsequently, pFN21KSPc HaloTag-OR and pGL4.29[luc2P/CRE/Hygro] […]
as §3, with “DMEM medium containing no test compound was added to negative control wells, and forskolin adjusted to 3 μM was added to positive control wells.” left out
as §4

OR8 = assay: as above; assay type: cell-based, human; conditions: ◯ = receptor responds to the fragrance; luminescence after 3 hours
OR9 = assay: as above; assay type: cell-based, human; conditions: ◯ = receptor responds to the fragrance; luminescence after 3 hours
OR7 = assay: as above; assay type: cell-based, human; conditions: ◯ = receptor responds to the fragrance; luminescence after 3 hours
OR3 = assay: as above; assay type: cell-based, human; conditions: ◯ = receptor responds to the fragrance; luminescence after 3 hours
[2] = tested on: 351 human olfactory receptors; assay: Response screen of 351 human olfactory receptors; assay type: cell-based; conditions: out of 351 human olfactory receptors; all responders class II
From the text: as §1, with “114-120). […]” for “114-120).”
as §3, with “DMEM medium containing no test compound was added to negative control wells, and forskolin adjusted to 3 μM was added to positive control wells.” left out
as §4
Based on the above-described procedure, 351 human olfactory receptors were measured for responses to coumarin as a fragrance. […]

For `O=Cc1ccc2c(c1)OCO2` [Piperonal, piperonal], the “similarity in odor quality to coumarin (VAS)” value [1] was “low similarity”, the “response of olfactory receptor OR1 to the fragrance” value (OR1) was “◯” and the “response of olfactory receptor OR6 to the fragrance” value (OR6) was “◯”. For the same compound, the “response of olfactory receptor OR4 to the fragrance” value (OR4) was “◯”, the “response of olfactory receptor OR2 to the fragrance” value (OR2) was “◯” and the “response of olfactory receptor OR5 to the fragrance” value (“response of olfactory receptor OR5” for short) (OR5) was “◯”.

In the case of `C=C(C)[C@@H]1CCC2=CC(=O)C[C@@H](C)[C@]2(C)C1` [Nootkatone, nootkatone], the “response of olfactory receptor OR10 to the fragrance” value (OR10) is reported as “◯”, the “response of olfactory receptor OR8 to the fragrance” value (OR8) is reported as “◯” and the “response of olfactory receptor OR9 to the fragrance” value (“response of olfactory receptor OR9” for short) (OR9) is reported as “◯”. The “response of olfactory receptor OR7 to the fragrance” value (OR7) was “◯”.

For `CCCC1CCC(=O)O1` (stereo not shown) [γ-Heptalactone, γ-heptalactone], the “response of olfactory receptor OR3 to the fragrance” value (“response of olfactory receptor OR3” for short) (OR3) was “◯”, the “response of olfactory receptor OR1 to the fragrance” value (OR1) was “◯” and the “response of olfactory receptor OR5” value (OR5) was “◯”.

In the case of `O=C(O)C=Cc1ccccc1O` [o-Hydroxycinnamic Acid, o-hydroxycinnamic acid], the “response of olfactory receptor OR8 to the fragrance” value (OR8) is reported as “◯”, the “response of olfactory receptor OR9” value (OR9) is reported as “◯” and the “response of olfactory receptor OR7 to the fragrance” value (OR7) is reported as “◯”.

In the case of `CCCCC(=O)OCC` [Ethyl Valerate, ethyl valerate], the “response of olfactory receptor OR9” value (OR9) is reported as “◯”.

With `CC(C)[C@@H]1CC[C@@H](C)CC1=O` [Menthone, menthone] the “response of olfactory receptor OR3” value (OR3) was “◯”.

For `O=c1ccc2ccccc2o1` [coumarin, reference compound], the “response of olfactory receptor OR3” value (OR3) was “confirmed to respond”, the “number of olfactory receptors showing dose-dependent responses” value [2] was “six” and the “response of olfactory receptor OR1 to the fragrance” value (OR1) was “confirmed to respond”. The “response of olfactory receptor OR6 to the fragrance” value (OR6) was “confirmed to respond”, the “response of olfactory receptor OR4 to the fragrance” value (OR4) was “confirmed to respond” and the “response of olfactory receptor OR2 to the fragrance” value (OR2) was “confirmed to respond”. For the same compound, the “response of olfactory receptor OR5” value (OR5) was “confirmed to respond”.
